ChEMBL document CHEMBL4420068, “Samhd1 modulation for treating resistance to cancer therapy” (2018)
≈ marks a conversion by molar mass, not a printed value. Calls of active or inactive are those of the source. No cut-off for these calls is given here.

Key:
THP-1 [1] = test: Ratio of cytotoxic IC50 for human THP1 (+/+) cells expressing wild type SAMHD1 to cytotoxic IC50 for human THP1 cells with CRISP/CAS9 SAMHD1 knockout; type: functional
THP-1 [2] = test: Ratio of cytotoxic IC50 for human THP1 cells with constitutively expressing high SAMHD1 expression to cytotoxic IC50 for parental human THP1 cells expressing low SAMHD1 expression; type: functional
U-251 = test: Cytotoxic activity against human U251MG cells assessed as reduction in cell viability incubated for 96 hrs by MTT assay; type: functional, cell-based; details: U-251, 96 h
[3] = biological target: Deoxynucleoside triphosphate triphosphohydrolase SAMHD1 (Homo sapiens) (UniProt Q9Y3Z3); test: Substrate activity at SAMHD1 (unknown origin) expressed in bacterial system expressed in bacteria assessed as triphospho-hydolase activity by measuring cytarabine tri-phosphate […]
HEL = test: Cytotoxic activity against human HEL cells assessed as reduction in cell viability at 10 to 50 ug/ml in presence of lentiviral protein X- virus-like particles incubated for 96 hrs by MTT assay; type: functional, cell-based
HL-60 = test: Cytotoxic activity against human HL60 cells assessed as reduction in cell viability at 10 to 50 ug/ml in presence of lentiviral protein X- virus-like particles incubated for 96 hrs by MTT assay; type: functional, cell-based
MOLM-13 = test: Cytotoxic activity against human MOLM13 cells assessed as reduction in cell viability at 10 to 50 ug/ml in presence of lentiviral protein X- virus-like particles incubated for 96 hrs by MTT assay; type: functional, cell-based

Chain of Deoxynucleoside triphosphate triphosphohydrolase SAMHD1 (Homo sapiens) (Q9Y3Z3 whole entry): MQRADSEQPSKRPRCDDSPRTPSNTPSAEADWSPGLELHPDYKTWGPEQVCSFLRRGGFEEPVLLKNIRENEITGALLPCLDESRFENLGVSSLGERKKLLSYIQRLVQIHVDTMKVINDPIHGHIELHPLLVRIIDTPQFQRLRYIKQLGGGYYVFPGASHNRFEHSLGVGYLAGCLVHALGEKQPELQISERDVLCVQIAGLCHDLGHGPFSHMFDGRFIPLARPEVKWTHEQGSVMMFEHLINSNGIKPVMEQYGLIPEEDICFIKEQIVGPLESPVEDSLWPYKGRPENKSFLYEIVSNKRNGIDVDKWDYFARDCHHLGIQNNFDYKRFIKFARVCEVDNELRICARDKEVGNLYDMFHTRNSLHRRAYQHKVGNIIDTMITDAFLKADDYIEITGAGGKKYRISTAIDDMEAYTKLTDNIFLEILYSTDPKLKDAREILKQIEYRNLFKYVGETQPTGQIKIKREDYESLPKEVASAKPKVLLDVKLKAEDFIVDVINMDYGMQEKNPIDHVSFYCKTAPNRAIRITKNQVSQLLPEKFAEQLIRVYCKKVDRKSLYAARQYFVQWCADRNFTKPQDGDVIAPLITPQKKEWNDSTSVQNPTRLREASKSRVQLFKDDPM

| SMILES | Ratio IC50 (THP-1 [1]) | Ratio IC50 (THP-1 [2]) | other results |
| --- | --- | --- | --- |
| Nc1nc(Cl)nc2c1ncn2[C@H]1C[C@H](O)[C@@H](CO)O1 [CLADRIBINE] | 1 | 2 |  |
| Nc1nc(Cl)nc2c1ncn2[C@@H]1O[C@H](CO)[C@@H](O)[C@@H]1F [CLOFARABINE] |  | 11 |  |
| Nc1ccn([C@@H]2O[C@H](CO)[C@@H](O)[C@@H]2O)c(=O)n1 [CYTARABINE] |  |  | IC50 (U-251): 0.022 µg/mL (≈ 0.0905 µM); Activity [3]: Active; Activity (HEL): Active; Activity (HL-60): Active; Activity (MOLM-13): Active |
| COc1cccc2c1C(=O)c1c(O)c3c(c(O)c1C2=O)C[C@@](O)(C(C)=O)C[C@@H]3O[C@H]1C[C@H](N)[C@H](O)[C@H](C)O1 [DAUNORUBICIN] | 1 | 1 |  |
| Nc1ncn([C@H]2C[C@H](O)[C@@H](CO)O2)c(=O)n1 [DECITABINE] | 9 | 6 |  |
| Nc1nc(F)nc2c1ncn2[C@@H]1O[C@H](CO)[C@@H](O)[C@@H]1O [FLUDARABINE] |  | 6 |  |
| Nc1ccn([C@@H]2O[C@H](CO)[C@@H](O)C2(F)F)c(=O)n1 [GEMCITABINE] | 1 | 0.5 |  |
| COc1nc(N)nc2c1ncn2[C@@H]1O[C@H](CO)[C@@H](O)[C@@H]1O [NELARABINE] |  | 4 |  |
| NC(=O)c1ncn([C@@H]2O[C@H](CO)[C@@H](O)[C@H]2O)n1 [RIBAVIRIN] | 0.5 | 0.5 |  |
| Nc1nc2[nH]cnc2c(=S)[nH]1 [THIOGUANINE] | 1 | 1 | Activity [3]: Active |
